Experimental findings from patent publication US20200370088A1, “KIT AND METHOD FOR ANTIBIOTICS SUSCEPTIBILITY TESTING WITH THE AGAR DILUTION METHOD” ([…].R.L., priority 2019, published 2020) are described below.

In brackets after ≈: the same amount, converted by molar mass.

For this assay, the system named is test bacteria. The experiment in a line: Agar dilution MIC test in 12-well agarized panel (FIG. 2A-E). Particulars: for MIC: agar dilution test. Type of assay: cell-based. On the procedure:
In alternative embodiments, the MIC in agar is determined by the steps of inoculating a suspension of the bacterium to be tested in a plurality of agarized wells with serial two-fold dilutions of antibiotic. The test bacteria are inoculated on the agarized wells. These inoculated wells are incubated at 35-37° C. overnight. The MIC is defined as the minimum antibiotic concentration that yielded complete inhibition of the bacteria on the wells. The steps are illustrated in FIG. 1 and FIGS. 2a-2e.
In alternative embodiments of methods as provided herein different bacterial strains such as Staphylococcus spp., Enterococcus spp., Enterobactariaceae and corresponding mixtures can be inoculated onto the surface of the agarized wells prepared according to Ref. (1) and containing various concentrations of antibiotic. The inoculated wells are incubated at about 35-37° C. for a fixed time, or in alternative embodiment for about 15-24 hours. Depending on the concentration of the antibiotic, bacterial growth results and is clearly visible on the wells. Generally, in the wells having the high concentration of antibiotic, the antibiotic inhibits the bacterial growth while on the wells having low antibiotic concentrations distinctly visible and typical growth is observed. The lowest antibiotic concentration which serves to inhibit the growth of the bacteria on the wells is defined as the minimal inhibitory concentration (MIC).
With particular reference to the FIGS. 2a-2e, the therein illustrated kit is a 12-well panel containing the antibiotic incorporated into an agar medium in different concentrations, i.e. 11 two-fold dilutions (0.25-256 μg/ml). The procedure used to carry out the test is the agar dilution (AD)method for the antimicrobial susceptibility testing of the antibiotic and is according to the one recommended by CLSI and EUCAST (Ref. 1-4) standards but in a simpler and less time-consuming way and with highly reproducible results.
All wells are inoculated with a standardized microbial suspension.
After incubation in thermostat (as described in the following paragraph, for example at 36±2° C. for 16-20 hours in ambient air) the result is read and interpreted.
Test Procedure • Take a panel from its envelope and leave it at room temperature for 10 min. • Prepare a suspension of the test organism using either the direct colony suspension or growth method. • Standardize the suspension to the density of a McFarland 0.5 standard. • Optimally within 15 min of preparation, dilute the adjusted suspension 1:10 in saline. • Dispense 2 μl of the inoculum solution over the agar surface (*) into each well (the final inoculums concentration should be approximately 10^4 CFU per spot). […]
At the end of the incubation period observe the growth in the wells and establish the MIC, i.e. the lowest concentration of antibiotic that inhibits visible growth.
Disregard single colonies or faint haze caused by the inoculum

Consider `C[C@@H]1O[C@@H]1P(=O)(O)O` [fosfomycin], for which the MIC by setting is: (48 h, FIG. 2d) 64 µg/mL (≈ 464 µM); (FIG. 2a) 0.5 µg/mL (≈ 3.62 µM); (FIG. 2b) 16 µg/mL (≈ 116 µM); (FIG. 2c) 2 µg/mL (≈ 14.5 µM). In addition, the “growth observed in well” value (FIG. 2E, at 1 μg/ml) is recorded as “faint haze”.
